“And” between values parts separate entries of the source, which are not always exact repeats. Equal entries are not always repeated.
What was measured:
[1] = test system: B. anthracis Ames NR-3838 spores; design: species or system New Zealand White (NZW) rabbits; conditions: rabbit, in vivo
[2] = test system: B. anthracis Ames spores (NR3838); design: species or system New Zealand White (NZW) rabbits; conditions: rabbit, in vivo
[3] = test system: B. anthracis Ames NR-3838 spores; design: species or system New Zealand White (NZW) rabbits; conditions: rabbit, in vivo; remark: listed apart in the source
[4] = test system: B. anthracis Ames spores (NR3838); design: species or system New Zealand White (NZW) rabbits; conditions: rabbit, in vivo; remark: listed apart in the source
[5] = test system: B. anthracis Ames NR-3838 spores; conditions: rabbit, in vivo
[6] = test system: B. anthracis Ames spores (NR3838); design: species or system New Zealand White (NZW) rabbits; conditions: rabbit, in vivo; remark: listed apart in the source
[7] = test system: B. anthracis Ames NR-3838 spores; design: species or system New Zealand White (NZW) rabbits; conditions: rabbit, in vivo; remark: listed apart in the source
[8] = test system: B. anthracis Ames NR-3838 spores; design: species or system New Zealand White (NZW) rabbits; conditions: rabbit, in vivo; remark: listed apart in the source
[9] = test system: B. anthracis Ames spores (NR3838); design: species or system New Zealand White (NZW) rabbits; conditions: rabbit, in vivo; remark: listed apart in the source
[10] = test system: B. anthracis; assay: microbe, parasite or virus in culture; format: cell-based; conditions: Bacillus anthracis

Structure (SMILES) | survival [1] | overall survival rate [2] | survival [2] | Average Bacterial Load (cfu/g), lung [3] | B. anthracis bacterial load in lymph node tissue [4] | B. anthracis bacterial load in spleen tissue [4] | peak of febrile response (core body temperature) [5] | anthrax-related lesions (histopathology) [6] | anthrax induced lesions (histopathology) [7] | animals positive for bacteremia [8] | average level of bacteremia, comparing only the two antibiotic-treated groups [8] | bacteremia [9] | average bacterial load in the lung tissue, comparing only the two antibiotic-treated groups [3] | MIC [10] | maximum percent weight loss [5]
C[C@H]1COc2c(N3CCN(C)CC3)c(F)cc3c(=O)c(C(=O)O)cn1c23 [Levofloxacin] | 100% | 50% | 100% and 50% | 6.93E+03 cfu/g | 0 cfu/g | 0 cfu/g | ~41 °C | – | – | – | – | – | – | – | –
CCCCCCCCCCNCCNC1(C)CC(OC2C(Oc3c4cc5cc3Oc3ccc(cc3Cl)[C@@H](O)[C@@H](NC(=O)[C@@H](CC(C)C)NC)C(=O)N[C@@H](CC(N)=O)C(=O)N[C@H]5C(=O)N[C@H]3C(=O)N[C@H](C(=O)N[C@H](C(=O)O)c5cc(O)c(CNCP(=O)(O)O)c(O)c5-c5cc3ccc5O)[C@H](O)c3ccc(c(Cl)c3)O4)OC(CO)C(O)C2O)OC(C)C1O (some centres unmarked) [Vibativ, N^3″-[2-(decylamino)ethyl]-29-[[(phosphonomethyl)amino]methyl]vancomycin] | 100% | 67% | 100% and 60% | 1.93E+03 cfu/g | – | – | ~41 °C | generally mitigated | mitigation of anthrax induced lesions | 2 out of 12 | significantly (p<0.05) lower | never developed bacteremia at a detectable level | significantly (p<0.05) lower | < 0.0625 µg/mL | significantly (p<0.05) higher

From patent publication US20260199427A1 (priority 2021, published 2026)
